Laboratory results as given in ChEMBL document CHEMBL5291721, “A preclinical secondary pharmacology resource illuminates target-adverse drug reaction associations of marketed drugs” (Nat Commun, 2023).

Legend:
[1] = molecular target: T1, Androgen receptor (Homo sapiens, UniProt P10275)
T1 sequence (P10275 whole entry): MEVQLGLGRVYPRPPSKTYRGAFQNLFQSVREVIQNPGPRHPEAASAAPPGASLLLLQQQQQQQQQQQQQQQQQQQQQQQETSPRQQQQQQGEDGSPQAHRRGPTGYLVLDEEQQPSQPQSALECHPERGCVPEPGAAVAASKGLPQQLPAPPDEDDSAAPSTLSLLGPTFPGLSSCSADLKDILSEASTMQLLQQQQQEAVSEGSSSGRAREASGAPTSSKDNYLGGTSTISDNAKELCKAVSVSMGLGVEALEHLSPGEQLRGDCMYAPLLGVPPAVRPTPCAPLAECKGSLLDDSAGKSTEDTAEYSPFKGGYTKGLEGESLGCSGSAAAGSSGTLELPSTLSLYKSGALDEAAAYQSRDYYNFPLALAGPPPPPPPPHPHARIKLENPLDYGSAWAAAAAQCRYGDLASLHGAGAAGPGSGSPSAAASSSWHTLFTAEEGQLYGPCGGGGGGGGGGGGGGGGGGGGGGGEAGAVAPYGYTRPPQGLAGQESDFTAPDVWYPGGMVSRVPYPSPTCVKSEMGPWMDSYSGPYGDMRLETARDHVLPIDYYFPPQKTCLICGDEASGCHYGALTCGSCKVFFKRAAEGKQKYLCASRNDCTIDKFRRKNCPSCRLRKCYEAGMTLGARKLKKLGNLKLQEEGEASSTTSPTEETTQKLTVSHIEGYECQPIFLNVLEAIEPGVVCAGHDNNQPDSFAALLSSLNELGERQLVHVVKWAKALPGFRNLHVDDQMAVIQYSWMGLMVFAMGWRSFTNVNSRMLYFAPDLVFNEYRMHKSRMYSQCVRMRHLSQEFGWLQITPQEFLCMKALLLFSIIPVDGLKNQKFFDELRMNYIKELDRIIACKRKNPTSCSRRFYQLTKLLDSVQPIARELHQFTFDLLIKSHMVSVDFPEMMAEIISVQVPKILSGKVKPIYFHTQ

[2] = molecular target: T2, Progesterone receptor (Homo sapiens, UniProt P06401)
T2 sequence (P06401 whole entry): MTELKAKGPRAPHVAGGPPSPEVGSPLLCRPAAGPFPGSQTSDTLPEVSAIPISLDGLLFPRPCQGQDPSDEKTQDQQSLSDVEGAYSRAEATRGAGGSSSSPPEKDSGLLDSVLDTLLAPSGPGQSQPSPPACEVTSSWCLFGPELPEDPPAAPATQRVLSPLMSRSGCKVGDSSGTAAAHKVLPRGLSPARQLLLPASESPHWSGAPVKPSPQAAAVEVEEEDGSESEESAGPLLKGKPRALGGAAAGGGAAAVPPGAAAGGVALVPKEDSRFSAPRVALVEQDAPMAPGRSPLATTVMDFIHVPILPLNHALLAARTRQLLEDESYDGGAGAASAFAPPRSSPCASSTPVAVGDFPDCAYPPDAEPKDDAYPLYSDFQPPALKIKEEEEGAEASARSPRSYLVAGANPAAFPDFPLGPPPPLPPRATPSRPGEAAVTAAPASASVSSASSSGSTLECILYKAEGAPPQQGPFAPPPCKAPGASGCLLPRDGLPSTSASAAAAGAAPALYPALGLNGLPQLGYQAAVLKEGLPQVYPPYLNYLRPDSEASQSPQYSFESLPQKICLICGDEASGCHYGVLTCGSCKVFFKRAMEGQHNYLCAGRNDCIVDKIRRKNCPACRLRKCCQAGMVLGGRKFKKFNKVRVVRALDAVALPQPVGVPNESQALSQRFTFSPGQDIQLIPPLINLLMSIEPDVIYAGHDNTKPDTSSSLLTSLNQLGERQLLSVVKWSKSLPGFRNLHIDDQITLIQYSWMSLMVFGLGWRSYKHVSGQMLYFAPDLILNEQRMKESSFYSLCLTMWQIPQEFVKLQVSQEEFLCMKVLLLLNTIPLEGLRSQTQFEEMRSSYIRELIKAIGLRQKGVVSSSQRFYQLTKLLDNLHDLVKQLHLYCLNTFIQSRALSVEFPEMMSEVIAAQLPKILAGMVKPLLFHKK

[3] = molecular target: T3, Muscarinic acetylcholine receptor M1 (Homo sapiens, UniProt P11229); type: functional, cell-based
T3 sequence (P11229 whole entry): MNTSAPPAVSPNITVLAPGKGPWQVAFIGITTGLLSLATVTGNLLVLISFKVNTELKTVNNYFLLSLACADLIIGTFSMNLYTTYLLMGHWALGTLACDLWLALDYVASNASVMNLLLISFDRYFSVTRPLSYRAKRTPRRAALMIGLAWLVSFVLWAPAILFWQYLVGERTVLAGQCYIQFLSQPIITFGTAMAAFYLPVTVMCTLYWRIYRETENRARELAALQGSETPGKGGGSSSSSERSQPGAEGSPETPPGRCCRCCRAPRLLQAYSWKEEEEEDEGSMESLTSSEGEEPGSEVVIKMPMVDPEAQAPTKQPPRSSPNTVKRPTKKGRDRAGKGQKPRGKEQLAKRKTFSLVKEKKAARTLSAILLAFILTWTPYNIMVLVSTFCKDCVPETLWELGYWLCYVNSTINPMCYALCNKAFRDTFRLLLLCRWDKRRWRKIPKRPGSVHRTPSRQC

[4] = molecular target: T3, Muscarinic acetylcholine receptor M1; type: functional, cell-based; remark: listed apart in the source
[5] = molecular target: Gamma-aminobutyric acid receptor subunit alpha-1/alpha-2/beta-2/gamma-2 (Homo sapiens, UniProt P14867+P18507+P47869+P47870); type: protein-complex assay
Sequence of Gamma-aminobutyric acid receptor subunit alpha-1/alpha-2/beta-2/gamma-2 (P14867 whole entry): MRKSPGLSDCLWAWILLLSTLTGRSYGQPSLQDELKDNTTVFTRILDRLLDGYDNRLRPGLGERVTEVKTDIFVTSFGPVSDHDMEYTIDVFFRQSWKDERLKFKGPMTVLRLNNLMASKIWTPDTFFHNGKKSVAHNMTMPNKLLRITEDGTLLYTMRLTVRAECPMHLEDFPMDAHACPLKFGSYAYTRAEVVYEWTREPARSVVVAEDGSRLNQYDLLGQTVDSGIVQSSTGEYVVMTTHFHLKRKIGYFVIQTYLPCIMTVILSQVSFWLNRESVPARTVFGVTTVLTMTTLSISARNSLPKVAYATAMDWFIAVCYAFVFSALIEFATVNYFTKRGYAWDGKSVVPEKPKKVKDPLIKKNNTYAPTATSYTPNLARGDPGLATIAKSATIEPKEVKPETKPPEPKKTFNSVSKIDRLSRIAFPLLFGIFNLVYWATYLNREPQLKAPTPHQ
Sequence of Gamma-aminobutyric acid receptor subunit alpha-1/alpha-2/beta-2/gamma-2 (P47870 whole entry): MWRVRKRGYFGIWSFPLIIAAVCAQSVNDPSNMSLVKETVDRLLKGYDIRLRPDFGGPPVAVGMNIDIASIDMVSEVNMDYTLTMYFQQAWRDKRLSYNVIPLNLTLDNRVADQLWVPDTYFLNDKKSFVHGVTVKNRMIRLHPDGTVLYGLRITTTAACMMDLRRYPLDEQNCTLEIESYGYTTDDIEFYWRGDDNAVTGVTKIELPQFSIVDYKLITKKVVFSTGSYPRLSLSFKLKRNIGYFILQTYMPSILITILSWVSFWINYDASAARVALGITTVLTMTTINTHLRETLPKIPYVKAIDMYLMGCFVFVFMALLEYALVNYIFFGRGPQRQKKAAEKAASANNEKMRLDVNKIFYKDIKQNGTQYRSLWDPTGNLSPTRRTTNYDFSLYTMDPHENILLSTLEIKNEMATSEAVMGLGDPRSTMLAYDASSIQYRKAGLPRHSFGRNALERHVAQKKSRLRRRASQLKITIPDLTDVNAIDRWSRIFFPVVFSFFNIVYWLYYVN
Sequence of Gamma-aminobutyric acid receptor subunit alpha-1/alpha-2/beta-2/gamma-2 (P18507 whole entry): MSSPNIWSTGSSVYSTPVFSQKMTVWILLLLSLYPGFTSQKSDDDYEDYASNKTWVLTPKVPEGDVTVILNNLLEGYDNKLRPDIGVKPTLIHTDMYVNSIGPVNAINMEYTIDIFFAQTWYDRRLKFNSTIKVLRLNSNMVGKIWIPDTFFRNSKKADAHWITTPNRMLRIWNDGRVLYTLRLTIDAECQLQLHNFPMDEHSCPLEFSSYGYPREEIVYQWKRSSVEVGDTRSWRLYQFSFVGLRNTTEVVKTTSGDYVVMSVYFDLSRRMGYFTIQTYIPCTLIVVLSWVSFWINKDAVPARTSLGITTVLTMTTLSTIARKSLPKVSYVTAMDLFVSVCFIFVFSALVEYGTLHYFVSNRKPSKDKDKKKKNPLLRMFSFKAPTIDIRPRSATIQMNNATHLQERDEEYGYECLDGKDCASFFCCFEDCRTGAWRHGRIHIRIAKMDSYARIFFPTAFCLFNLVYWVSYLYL
Sequence of Gamma-aminobutyric acid receptor subunit alpha-1/alpha-2/beta-2/gamma-2 (P47869 whole entry): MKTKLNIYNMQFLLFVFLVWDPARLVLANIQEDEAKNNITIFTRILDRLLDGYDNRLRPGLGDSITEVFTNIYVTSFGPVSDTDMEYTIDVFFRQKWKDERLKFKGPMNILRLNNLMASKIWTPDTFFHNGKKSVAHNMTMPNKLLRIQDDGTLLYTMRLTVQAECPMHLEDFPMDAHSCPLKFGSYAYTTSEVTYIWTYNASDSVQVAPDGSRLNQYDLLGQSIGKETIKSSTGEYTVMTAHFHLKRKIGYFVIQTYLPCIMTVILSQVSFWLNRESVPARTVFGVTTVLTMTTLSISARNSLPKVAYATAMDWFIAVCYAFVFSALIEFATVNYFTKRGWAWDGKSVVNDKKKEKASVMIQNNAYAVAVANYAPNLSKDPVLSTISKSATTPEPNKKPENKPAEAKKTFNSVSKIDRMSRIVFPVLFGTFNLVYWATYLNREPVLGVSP

[6] = molecular target: Gamma-aminobutyric acid receptor subunit alpha-1 (Rattus norvegicus, UniProt P62813)
Sequence of Gamma-aminobutyric acid receptor subunit alpha-1 (P62813 whole entry): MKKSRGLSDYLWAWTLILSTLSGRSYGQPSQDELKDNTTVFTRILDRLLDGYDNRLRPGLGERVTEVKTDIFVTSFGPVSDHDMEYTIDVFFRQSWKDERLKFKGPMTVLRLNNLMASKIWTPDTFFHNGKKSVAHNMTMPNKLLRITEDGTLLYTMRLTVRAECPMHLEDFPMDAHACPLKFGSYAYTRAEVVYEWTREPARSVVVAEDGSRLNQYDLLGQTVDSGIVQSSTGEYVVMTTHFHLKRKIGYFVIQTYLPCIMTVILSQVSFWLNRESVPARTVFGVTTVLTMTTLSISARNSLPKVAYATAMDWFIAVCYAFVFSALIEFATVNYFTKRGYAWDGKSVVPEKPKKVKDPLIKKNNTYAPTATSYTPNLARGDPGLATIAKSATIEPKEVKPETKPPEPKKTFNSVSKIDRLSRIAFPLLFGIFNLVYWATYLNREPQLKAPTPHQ

[7] = molecular target: T4, Muscarinic acetylcholine receptor M2 (Homo sapiens, UniProt P08172); type: functional, cell-based
T4 sequence (P08172 whole entry): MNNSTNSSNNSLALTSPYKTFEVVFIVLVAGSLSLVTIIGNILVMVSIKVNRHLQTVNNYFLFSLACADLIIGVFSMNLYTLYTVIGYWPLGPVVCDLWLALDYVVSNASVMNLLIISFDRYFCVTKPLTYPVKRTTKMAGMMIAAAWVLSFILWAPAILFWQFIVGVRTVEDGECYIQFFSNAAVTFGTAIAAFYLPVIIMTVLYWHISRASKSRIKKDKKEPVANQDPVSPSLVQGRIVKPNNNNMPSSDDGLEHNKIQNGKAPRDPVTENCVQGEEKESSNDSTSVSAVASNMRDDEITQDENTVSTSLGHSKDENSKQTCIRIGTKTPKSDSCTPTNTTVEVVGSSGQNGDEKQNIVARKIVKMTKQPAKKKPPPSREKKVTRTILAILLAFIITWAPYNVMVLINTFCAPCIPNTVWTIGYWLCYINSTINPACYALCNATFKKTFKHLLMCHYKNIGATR
Note: assay procedure not described here.

Structure (SMILES)	AC50 [1] [µM]	AC50 [2] [µM]	AC50 [3] [µM]	AC50 [4] [µM]	AC50 [5] [µM]	AC50 [6] [µM]	AC50 [7] [µM]
COC(=O)N(C)c1c(N)nc(-c2nn(Cc3ccccc3F)c3ncccc23)nc1N [RIOCIGUAT]	> 30	> 30	> 30	> 30	> 30	–	–
COCC(=O)O[C@]1(CCN(C)CCCc2nc3ccccc3[nH]2)CCc2cc(F)ccc2[C@@H]1C(C)C [MIBEFRADIL]	> 30	> 30	> 3	17.7	> 10	> 30	–
CC(C)(Oc1ccc(C(=O)c2ccc(Cl)cc2)cc1)C(=O)O [FENOFIBRIC ACID]	> 30	> 30	> 30	> 30	> 30	–	–
CN1C(C(=O)Nc2ccccn2)=C(OC(=O)/C=C/c2ccccc2)c2ccccc2S1(=O)=O [PIROXICAM CINNAMATE]	> 30	> 30	> 30	> 30	> 30	–	–
Cc1ccc2c([nH]c(=O)c3c(=O)cc(C(=O)OCCC(C)C)oc32)c1C	> 30	> 30	> 30	> 30	> 10	–	–
Cc1cn(-c2cc(NC(=O)c3ccc(C)c(Nc4nccc(-c5cnccn5)n4)c3)cc(C(F)(F)F)c2)cn1 [RADOTINIB]	> 30	> 30	> 30	> 30	> 30	–	> 30
CC(C)N1CCOC(c2cccc(C(F)(F)F)c2)C1 (stereo unspecified) [OXAFLOZANE]	> 30	> 30	> 30	> 30	> 30	–	–
CC(NCCC(c1ccccc1)c1ccccc1)c1ccccc1 (stereo unspecified) [FENDILINE]	> 30	> 30	–	26.7	> 10	–	–
COC(=O)N[C@H](C(=O)N1CC2(CC2)C[C@H]1c1ncc(-c2ccc3c(c2)C(F)(F)c2cc(-c4ccc5nc([C@@H]6[C@H]7CC[C@H](C7)N6C(=O)[C@@H](NC(=O)OC)C(C)C)[nH]c5c4)ccc2-3)[nH]1)C(C)C	> 10	> 10	> 30	> 30	> 30	–	–
